In US20240246950A1, “Anilino-Pyrazole Derivatives, Compositions and Methods Thereof” (Ensem Therapeutics, priority 2022, published 2024) one finds IC50 data, which are given here for 16 molecules.

What all share (type): biochemical
The target in assay [1] is CDK1/cyclinB (Homo sapiens, UniProt P06493). As to the kind of experiment: In vitro kinase TR-FRET assay CDK1/cyclinB. The following applies: enzyme 0.3 nM, ATP 56 μM. How it is done: (§1) In vitro kinase TR-FRET assays: CDK2/CycA2, CDK2/CycE1, CDK1/cyclinB and GSK3β
Sequence of CDK1/cyclinB (P06493 whole entry): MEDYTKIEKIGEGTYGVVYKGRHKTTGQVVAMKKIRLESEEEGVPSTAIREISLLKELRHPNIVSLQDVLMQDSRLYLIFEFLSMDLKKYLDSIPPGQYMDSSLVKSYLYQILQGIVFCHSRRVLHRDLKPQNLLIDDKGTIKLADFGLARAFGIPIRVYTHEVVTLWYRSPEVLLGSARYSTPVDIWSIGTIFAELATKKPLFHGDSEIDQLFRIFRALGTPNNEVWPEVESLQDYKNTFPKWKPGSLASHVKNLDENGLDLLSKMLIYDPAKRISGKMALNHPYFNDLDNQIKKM
Sequence of CDK1/cyclinB (P14635 whole entry partner): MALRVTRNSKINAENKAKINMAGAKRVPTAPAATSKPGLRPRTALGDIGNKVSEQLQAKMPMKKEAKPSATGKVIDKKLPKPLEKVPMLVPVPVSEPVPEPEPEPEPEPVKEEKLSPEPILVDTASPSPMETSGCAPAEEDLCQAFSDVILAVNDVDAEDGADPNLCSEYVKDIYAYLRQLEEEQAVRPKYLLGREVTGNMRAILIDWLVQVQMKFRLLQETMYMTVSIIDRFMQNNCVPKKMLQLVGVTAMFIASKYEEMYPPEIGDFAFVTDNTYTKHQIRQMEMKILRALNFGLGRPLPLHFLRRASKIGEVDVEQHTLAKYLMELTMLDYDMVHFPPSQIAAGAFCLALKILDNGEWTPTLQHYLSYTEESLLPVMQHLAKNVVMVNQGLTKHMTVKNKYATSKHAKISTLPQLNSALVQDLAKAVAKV
(§2) The test compounds were prepared as 10 mM stock solution in 100% DMSO. The stock solution was then serially diluted 3-fold in 100% DMSO to 10 concentrations. 200 nL of each diluted compound solution was transferred to 384-well plate in duplicate. To each well, 5 uL of enzyme and ATP mixture solution containing enzyme CDK2/CycA2, CDK2/CycE1, CDK1/cyclinB, or GSK30 (final concentrations 3 nM, 0.6 nM, 0.3 nM, 0.6 nM, respectively) and ATP (final concentrations 27 μM, 82 μM, 56 μM, 7.6 μM, respectively) in the assay buffer (50 mM HEPES, pH7.5, 10 mM MgCl2, 1 mM DTT, 0.01% BSA, 0.01% Triton X-100). For negative control, 5 uL of assay buffer was added instead. The plate was incubated at room temperature for 10 min. 5 uL of peptide solution containing ULight-4E-BP1 peptide (final concentrations 50 nM) in the assay buffer was subsequently added into each well to initiate the reaction. By incubation at room temperature for 1 hour, 10 uL of 2 nM Eu-anti-phospho-4E BP1 antibody was then added for detection. After one hour incubation at room temperature, all samples were subjected to read the TR-FRET signal on Envision with excitation at 340 nm and emission fluorescence at 615 nm and 665 nm. IC50 values were then calculated by plotting dose-response curves and then using the XLfit application in Excel software.
For orientation: Time-resolved FRET reads energy transfer from a long-lived donor to a nearby acceptor.

Assay [2] concerns the target CDK2/CycA2 (Homo sapiens, UniProt P24941). As to the kind of experiment: In vitro kinase TR-FRET assay CDK2/CycA2. As to conditions: enzyme 3 nM, ATP 27 μM, read-out: CDK2 cyclinA2 activity assay: IC50. As to the method: as §1, §2
Assay [3] has as its target CDK2/CycE1 (Homo sapiens, UniProt P24941). As to the kind of experiment: In vitro kinase TR-FRET assay CDK2/CycE1. As to conditions: enzyme 0.6 nM, ATP 82 μM, read-out: CDK2 cyclinE1 activity assay: IC50. As to the method:
as §1, §2

Assay [4] deals with GSK3β (Homo sapiens, UniProt P49841). The experiment in a line: In vitro kinase TR-FRET assay GSK3β. As to conditions: enzyme 0.6 nM, ATP 7.6 μM. How it is done:
as §1, §2

Sequence of GSK3β (P49841 whole entry, species assumed): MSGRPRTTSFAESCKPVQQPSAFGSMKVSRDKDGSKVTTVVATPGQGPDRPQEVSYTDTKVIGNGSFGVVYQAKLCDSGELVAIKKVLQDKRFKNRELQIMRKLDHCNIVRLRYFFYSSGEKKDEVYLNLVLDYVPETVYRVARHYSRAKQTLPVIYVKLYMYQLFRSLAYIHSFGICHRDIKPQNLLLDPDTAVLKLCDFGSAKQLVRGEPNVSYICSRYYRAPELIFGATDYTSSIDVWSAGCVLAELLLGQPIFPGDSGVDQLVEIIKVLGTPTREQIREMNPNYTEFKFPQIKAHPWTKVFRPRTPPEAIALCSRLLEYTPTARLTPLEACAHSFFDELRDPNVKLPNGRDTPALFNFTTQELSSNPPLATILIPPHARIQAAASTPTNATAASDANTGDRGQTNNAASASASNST

Regarding `Cc1c([C@@H]2CC[C@H](OC(=O)NC(C)C)C2)n[nH]c1Nc1ccc2c(c1)CCS2(=O)=O` (racemic) [Example 24, cis 3-{5-[(1,1-dioxo-2,3-dihydro-1λ6-benzothiophen-5-yl)amino]-4-methyl-1H-pyrazol-3-yl}cyclopentyl (prop-2-ylamino)methanoate], the IC50 (as a rule, the concentration that inhibits the measured activity by half) in assay [1] was over 1000 nM; in assay [2], 500 to 1000 nM; in assay [3] it was 50 to 500 nM; in assay [4] it was over 1000 nM.

On to `CC(C)NC(=O)O[C@@H]1CC[C@H](c2cc(Nc3ccc4c(c3)C(C)(C)NS4(=O)=O)n[nH]2)C1` [Example 13, (1R,3S)-3-(3-((3,3-dimethyl-1,1-dioxido-2,3-dihydrobenzo[d]isothiazol-5-yl)amino)-1H-pyrazol-5-yl)cyclopentyl isopropylcarbamate], for which the IC50 is 50 to 500 nM in assay [1], under 50 nM in assay [2], under 50 nM in assay [3] and 50 to 500 nM in assay [4].

`CC(C)NC(=O)O[C@@H]1CC[C@H](c2[nH]nc(Nc3ccc4c(c3)CNS4(=O)=O)c2F)C1` [Example 14, (1R,3S)-3-(3-((1,1-dioxido-2,3-dihydrobenzo[d]isothiazol-5-yl)amino)-4-fluoro-1H-pyrazol-5-yl)cyclopentyl isopropylcarbamate]: the IC50 in assay [1] is 50 to 500 nM; in assay [2], under 50 nM; in assay [3], under 50 nM; in assay [4], over 1000 nM.

Regarding `CC(C)NC(=O)O[C@@H]1CC[C@H](c2cc(Nc3ccc4c(c3)N(C)C(=O)NS4(=O)=O)n[nH]2)C1` [Example 18, (1R,3S)-3-(3-((4-methyl-1,1-dioxido-3-oxo-3,4-dihydro-2H-benzo[e][1,2,4]thiadiazin-6-yl)amino)-1H-pyrazol-5-yl)cyclopentyl isopropylcarbamate], the IC50 in assay [1] was 500 to 1000 nM; in assay [2], under 50 nM; in assay [3] it was under 50 nM; in assay [4], 50 to 500 nM.

Turning to `CC(C)NC(=O)O[C@@H]1CC[C@H](c2cc(Nc3ccc4c(c3)C(=O)NC4)n[nH]2)C1` [Example 20, (1R,3S)-3-{5-[(3-oxo-2,3-dihydro-1H-isoindol-5-yl)amino]-2H-pyrazol-3-yl}cyclopentyl (prop-2-ylamino)methanoate], the IC50 is 500 to 1000 nM in assay [1], under 50 nM in assay [2], under 50 nM in assay [3] and over 1000 nM in assay [4].

Regarding `CC(C)NC(=O)O[C@@H]1CC[C@H](c2cc(Nc3cccc4c3S(=O)(=O)CC4)n[nH]2)C1` [Example 35, (1R,3S)-3-{5-[(1,1-dioxo-2,3-dihydro-1λ6-benzo[2,1-b]thiophen-7-yl)amino]-2H-pyrazol-3-yl}cyclopentyl (prop-2-ylamino)methanoate], the IC50 in assay [1], in assay [2], in assay [3] and in assay [4] was over 1000 nM throughout.

As to `CC(C)NC(=O)O[C@@H]1CC[C@H](c2cc(Nc3ccc4c(c3)S(=O)(=O)CCC4)n[nH]2)C1` [Example 39, (1R,3S)-3-(3-((1,1-dioxidothiochroman-7-yl)amino)-1H-pyrazol-5-yl)cyclopentyl isopropylcarbamate], the 50% inhibitory concentration (IC50) was 50 to 500 nM in assay [1], under 50 nM in assay [2], under 50 nM in assay [3] and 50 to 500 nM in assay [4].

On to `Cc1c(Nc2ccc3c(c2)CS(=O)(=O)C3)n[nH]c1[C@H]1CC[C@@H](OC(=O)NC(C)C)C1` [Example 43, (1R,3S)-3-{5-[(2,2-dioxo-1,3-dihydro-2λ^6-benzo[c]thiophen-5-yl)amino]-4-methyl-2H-pyrazol-3-yl}cyclopentyl (prop-2-ylamino)methanoate], for which the concentration for half-maximal inhibition (IC50) was over 1000 nM in assay [1], 50 to 500 nM in assay [2], 50 to 500 nM in assay [3] and over 1000 nM in assay [4].

For `Cc1c(Nc2ccc3c(c2)CS(=O)(=O)C3)n[nH]c1[C@H]1CC[C@@H](OC(=O)NC(C)(C)C)C1` [Example 44, (1R,3S)-3-{5-[(2,2-dioxo-1,3-dihydro-2%6-benzo[c]thiophen-5-yl)amino]-4-methyl-2H-pyrazol-3-yl}cyclopentyl [(2-methylprop-2-yl)amino]methanoate], the IC50 in assay [1] was over 1000 nM; in assay [2] it was 50 to 500 nM; in assay [3] it was 50 to 500 nM; in assay [4] it was over 1000 nM.

Regarding `CC(C)NC(=O)O[C@@H]1CC[C@H](c2cc(Nc3cccc4c3CS(=O)(=O)N4)n[nH]2)C1` [Example 48, (1R,3S)-3-(3-((2,2-dioxido-1,3-dihydrobenzo[c]isothiazol-4-yl)amino)-1H-pyrazol-5-yl)cyclopentyl isopropylcarbamate], the IC50 was over 1000 nM in assay [1], 50 to 500 nM in assay [2], 50 to 500 nM in assay [3] and over 1000 nM in assay [4].

Consider `CC(C)NC(=O)O[C@@H]1CC[C@H](c2cc(Nc3cccc4c3N(C)S(=O)(=O)C4)n[nH]2)C1` [Example 51, (1R,3S)-3-{5-[(1-methyl-2,2-dioxo-1,3-dihydro-2λ^6-benzo[2,1-c][1,2]thiazol-7-yl)amino]-2H-pyrazol-3-yl}cyclopentyl (prop-2-ylamino)methanoate], for which the IC50 in assay [1] is 50 to 500 nM; in assay [2] it was 500 to 1000 nM; in assay [3] it was 50 to 500 nM; in assay [4], over 1000 nM.

With `CC(C)NC(=O)O[C@@H]1CC[C@H](c2cc(Nc3c(F)ccc4c3CCS4(=O)=O)n[nH]2)C1` [Example 52, (1R,3S)-3-(3-((5-fluoro-1,1-dioxido-2,3-dihydrobenzo[b]thiophen-4-yl)amino)-1H-pyrazol-5-yl)cyclopentyl isopropylcarbamate], the IC50 is over 1000 nM in assay [1], 50 to 500 nM in assay [2], under 50 nM in assay [3] and over 1000 nM in assay [4].

As to `CC(C)NC(=O)O[C@@H]1CC[C@H](c2cc(Nc3cccc4c3CCS(=O)(=O)N4)n[nH]2)C1` [Example 53, (1R,3S)-3-(3-((2,2-dioxido-3,4-dihydro-1H-benzo[c][1,2]thiazin-5-yl)amino)-1H-pyrazol-5-yl)cyclopentyl isopropylcarbamate], the IC50 was 500 to 1000 nM in assay [1], under 50 nM in assay [2], under 50 nM in assay [3] and over 1000 nM in assay [4].

`CC(C)NC(=O)O[C@@H]1CC[C@H](c2cc(Nc3cc4c(cc3F)S(=O)(=O)CC4)n[nH]2)C1` [Example 54, (1R,3S)-3-(3-((6-fluoro-1,1-dioxido-2,3-dihydrobenzo[b]thiophen-5-yl)amino)-1H-pyrazol-5-yl)cyclopentyl isopropylcarbamate]: the IC50 was over 1000 nM in assay [1], under 50 nM in assay [2], under 50 nM in assay [3] and over 1000 nM in assay [4].

Consider `O=C(NC1CC1)O[C@@H]1CC[C@H](c2cc(Nc3nccc4c3CCS4(=O)=O)n[nH]2)C1` [Example 71, (1R,3S)-3-{5-[(1,1-dioxo-2,3-dihydro-1λ^6-thieno[3,2-c]pyridin-4-yl)amino]-2H-pyrazol-3-yl}cyclopentyl (cyclopropylamino)methanoate], for which the IC50 in assay [1] was 50 to 500 nM; in assay [2] it was under 50 nM; in assay [3], under 50 nM; in assay [4] it was 50 to 500 nM.

On to `CC(C)NC(=O)O[C@@H]1CC[C@H](c2cc(Nc3cc4c(cn3)CCS4(=O)=O)n[nH]2)C1` [Example 72, (1R,3S)-3-{5-[(1,1-dioxo-2,3-dihydro-1λ^6-thieno[3,2-c]pyridin-6-yl)amino]-1H-pyrazol-3-yl}cyclopentyl (prop-2-ylamino)methanoate], for which the IC50 in assay [1] was under 50 nM; in assay [2], under 50 nM; in assay [3], under 50 nM; in assay [4] it was over 1000 nM.
